The supplement of paper PMC8617591

Legend:
[1] = tested on: Mycobacterium tuberculosis Erdman (autoluminescent); test: GRinf, maximum normalised growth rate inhibition (three-drug combination) (unitless (-1 to 1)); higher = less effect (negative = killing)
Experimental: (§1)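 DiaMOND equipotent three-drug combination dose responses (10 doses, 1.5- or 2-fold spacing, centred on IC90) against autoluminescent M. tuberculosis Erdman in 8 in vitro models. Read-out is OD600, or luminescence for the intracellular and dormancy models, normalised to untreated wells. Hill-fit Einf, AUC25 and GRinf are potency metrics; FIC50 and FIC90 are total Loewe fractional inhibitory concentrations as log2 (negative = synergy).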

[2] = tested on: Mycobacterium tuberculosis Erdman (autoluminescent); test: total FIC90 (Loewe) at 90% inhibition, three-drug combination (log2); higher = more antagonistic
Experimental: as §1

[3] = tested on: Mycobacterium tuberculosis Erdman (autoluminescent); test: total FIC50 (Loewe) at 50% inhibition, three-drug combination (log2); higher = more antagonistic
Experimental: as §1

[4] = tested on: Mycobacterium tuberculosis Erdman (autoluminescent); test: AUC25, normalised area under dose response up to IC25 (three-drug combination) (fraction (0-1)); higher = more potent at low dose
Experimental: as §1

[5] = tested on: Mycobacterium tuberculosis Erdman (autoluminescent); test: Einf, fitted maximum growth inhibition of three-drug combination (fraction); higher = stronger maximal inhibition
Experimental: as §1

COc1c(N2C[C@@H]3CCCN[C@@H]3C2)c(F)cc2c(=O)c(C(=O)O)cn(C3CC3)c12 [moxifloxacin] + CO[C@H]1/C=C/O[C@@]2(C)Oc3c(C)c(O)c4c(O)c(c(/C=N/N5CCN(C6CCCC6)CC5)c(O)c4c3C2=O)NC(=O)/C(C)=C\C=C\[C@H](C)[C@H](O)[C@@H](C)[C@@H](O)[C@@H](C)[C@H](OC(C)=O)[C@@H]1C [rifapentine] + CO[C@H]1/C=C/O[C@@]2(C)Oc3c(C)c(O)c4c(O)c(c(/C=N/N5CCN(C)CC5)c(O)c4c3C2=O)NC(=O)/C(C)=C\C=C\[C@H](C)[C@H](O)[C@@H](C)[C@@H](O)[C@@H](C)[C@H](OC(C)=O)[C@@H]1C [rifampicin]
Settings	AUC25, [4]	Einf, [5]	GRinf, [1]	total FIC50, [3]	total FIC90, [2]
in vitro model: acidic pH 5.7, time point: constant (~7 days, model-specific)	0.0724	0.838	0.0128	0.153	–
in vitro model: acidic pH 5.7, time point: terminal (~4-5 doublings, model-specific)	0.0677	0.973	-0.122	0.25	0.137
in vitro model: intracellular J774, time point: constant = terminal	–	0.952	-0.11	–	1.1

Settings	AUC25, [4]	Einf, [5]	GRinf, [1]	total FIC50, [3]	total FIC90, [2]
in vitro model: butyrate, time point: constant (~7 days, model-specific)	0.102	0.883	0.109	0.138	2.35
in vitro model: butyrate, time point: terminal (~4-5 doublings, model-specific)	0.0922	0.952	0.0591	0.217	0.559
in vitro model: cholesterol 0.05 mM, time point: constant (~7 days, model-specific)	0.101	0.593	0.0182	0.609	–
in vitro model: cholesterol 0.05 mM, time point: terminal (~4-5 doublings, model-specific)	0.0956	0.891	-0.0633	0.426	1.76
in vitro model: cholesterol-high 0.2 mM, time point: constant (~7 days, model-specific)	0.0581	0.825	-0.0146	0.356	–
in vitro model: cholesterol-high 0.2 mM, time point: terminal (~4-5 doublings, model-specific)	0.0631	1	-0.758	0.707	0.468
in vitro model: dormancy (butyrate + nitrate, low O2), time point: constant (~7 days, model-specific)	0.0643	0.868	0.252	0.441	0.199
in vitro model: dormancy (butyrate + nitrate, low O2), time point: terminal (~4-5 doublings, model-specific)	0.0509	0.977	-0.14	0.539	0.615
in vitro model: standard 7H9 glycerol, time point: constant = terminal	0.0451	0.821	0.307	0.381	–
in vitro model: valerate, time point: constant (~7 days, model-specific)	0.0421	0.846	0.0605	0.542	–
in vitro model: valerate, time point: terminal (~4-5 doublings, model-specific)	0.0285	0.934	0.041	0.547	0.3

O=[N+]([O-])c1cn2c(n1)OC[C@@H](OCc1ccc(OC(F)(F)F)cc1)C2 [pretomanid] + CO[C@H]1/C=C/O[C@@]2(C)Oc3c(C)c(O)c4c(O)c(c(/C=N/N5CCN(C6CCCC6)CC5)c(O)c4c3C2=O)NC(=O)/C(C)=C\C=C\[C@H](C)[C@H](O)[C@@H](C)[C@@H](O)[C@@H](C)[C@H](OC(C)=O)[C@@H]1C [rifapentine] + CO[C@H]1/C=C/O[C@@]2(C)Oc3c(C)c(O)c4c(O)c(c(/C=N/N5CCN(C)CC5)c(O)c4c3C2=O)NC(=O)/C(C)=C\C=C\[C@H](C)[C@H](O)[C@@H](C)[C@@H](O)[C@@H](C)[C@H](OC(C)=O)[C@@H]1C [rifampicin]
Settings	AUC25, [4]	Einf, [5]	GRinf, [1]	total FIC50, [3]	total FIC90, [2]
in vitro model: acidic pH 5.7, time point: constant (~7 days, model-specific)	0.0846	0.906	-0.198	0.583	–
in vitro model: acidic pH 5.7, time point: terminal (~4-5 doublings, model-specific)	0.0433	0.982	-0.177	0.863	0.271
in vitro model: intracellular J774, time point: constant = terminal	–	0.998	-0.321	–	0.0281

Settings	AUC25, [4]	Einf, [5]	GRinf, [1]	total FIC50, [3]	total FIC90, [2]
in vitro model: butyrate, time point: constant (~7 days, model-specific)	0.0997	0.913	0.0188	0.122	-0.618
in vitro model: butyrate, time point: terminal (~4-5 doublings, model-specific)	0.0845	0.963	-0.00218	-0.0327	-0.0222
in vitro model: cholesterol 0.05 mM, time point: constant (~7 days, model-specific)	0.12	0.706	-0.115	0.545	–
in vitro model: cholesterol 0.05 mM, time point: terminal (~4-5 doublings, model-specific)	0.0882	0.891	-0.0855	0.37	0.821
in vitro model: cholesterol-high 0.2 mM, time point: constant (~7 days, model-specific)	0.0723	0.899	-0.242	0.542	0.699
in vitro model: cholesterol-high 0.2 mM, time point: terminal (~4-5 doublings, model-specific)	0.0602	0.992	-0.654	0.62	0.433
in vitro model: dormancy (butyrate + nitrate, low O2), time point: constant (~7 days, model-specific)	0.0773	0.885	0.156	0.534	0.288
in vitro model: dormancy (butyrate + nitrate, low O2), time point: terminal (~4-5 doublings, model-specific)	0.0339	0.968	-0.0787	0.206	0.101
in vitro model: standard 7H9 glycerol, time point: constant = terminal	0.0607	0.906	0.057	0.0183	–
in vitro model: valerate, time point: constant (~7 days, model-specific)	0.0681	0.866	0.0606	0.168	–
in vitro model: valerate, time point: terminal (~4-5 doublings, model-specific)	0.0473	0.937	0.0285	0.389	0.0371

CC(C)/N=c1\cc2n(-c3ccc(Cl)cc3)c3ccccc3nc-2cc1Nc1ccc(Cl)cc1 [clofazimine] + O=[N+]([O-])c1cn2c(n1)OC[C@@H](OCc1ccc(OC(F)(F)F)cc1)C2 [pretomanid] + CO[C@H]1/C=C/O[C@@]2(C)Oc3c(C)c(O)c4c(O)c(c(/C=N/N5CCN(C)CC5)c(O)c4c3C2=O)NC(=O)/C(C)=C\C=C\[C@H](C)[C@H](O)[C@@H](C)[C@@H](O)[C@@H](C)[C@H](OC(C)=O)[C@@H]1C [rifampicin]
Settings	AUC25, [4]	Einf, [5]	GRinf, [1]	total FIC50, [3]	total FIC90, [2]
in vitro model: acidic pH 5.7, time point: constant (~7 days, model-specific)	0.113	0.916	-0.179	0.218	–
in vitro model: acidic pH 5.7, time point: terminal (~4-5 doublings, model-specific)	0.073	0.989	-0.161	0.575	0.276
in vitro model: intracellular J774, time point: constant = terminal	–	0.992	-0.685	–	-0.529

Settings	AUC25, [4]	Einf, [5]	GRinf, [1]	total FIC50, [3]	total FIC90, [2]
in vitro model: butyrate, time point: constant (~7 days, model-specific)	0.104	0.936	-0.134	0.432	0.0534
in vitro model: butyrate, time point: terminal (~4-5 doublings, model-specific)	0.0947	0.977	-0.128	0.197	0.399
in vitro model: cholesterol 0.05 mM, time point: constant (~7 days, model-specific)	0.124	0.696	-0.174	1.03	–
in vitro model: cholesterol 0.05 mM, time point: terminal (~4-5 doublings, model-specific)	0.0924	0.844	0.0526	1.18	0.826
in vitro model: cholesterol-high 0.2 mM, time point: constant (~7 days, model-specific)	0.0944	0.891	-0.242	1.29	1.16
in vitro model: cholesterol-high 0.2 mM, time point: terminal (~4-5 doublings, model-specific)	0.0908	1	-0.716	1.57	1.36
in vitro model: dormancy (butyrate + nitrate, low O2), time point: constant (~7 days, model-specific)	0.0988	0.938	0.038	-0.678	-1.51
in vitro model: dormancy (butyrate + nitrate, low O2), time point: terminal (~4-5 doublings, model-specific)	0.0571	0.993	-0.337	-0.503	-0.477
in vitro model: standard 7H9 glycerol, time point: constant = terminal	0.11	0.93	0.0153	-0.349	-0.0486
in vitro model: valerate, time point: constant (~7 days, model-specific)	0.0751	0.857	0.0268	0.706	–
in vitro model: valerate, time point: terminal (~4-5 doublings, model-specific)	0.0551	0.929	0.0406	0.736	0.763
